The values below come from PMC7268545, “Development of a QPatch-Automated Electrophysiology Assay for Identifying TMEM16A Small-Molecule Inhibitors” (Assay and Drug Development Technologies, 2020).

Assay [1] deals with T1, TMEM16A (Homo sapiens, UniProt Q5XXA6).
T1 construct: expressed in transfected cells; host or cells: HEK293T-derived, doxycycline-inducible
T1 sequence (Q5XXA6 1-986): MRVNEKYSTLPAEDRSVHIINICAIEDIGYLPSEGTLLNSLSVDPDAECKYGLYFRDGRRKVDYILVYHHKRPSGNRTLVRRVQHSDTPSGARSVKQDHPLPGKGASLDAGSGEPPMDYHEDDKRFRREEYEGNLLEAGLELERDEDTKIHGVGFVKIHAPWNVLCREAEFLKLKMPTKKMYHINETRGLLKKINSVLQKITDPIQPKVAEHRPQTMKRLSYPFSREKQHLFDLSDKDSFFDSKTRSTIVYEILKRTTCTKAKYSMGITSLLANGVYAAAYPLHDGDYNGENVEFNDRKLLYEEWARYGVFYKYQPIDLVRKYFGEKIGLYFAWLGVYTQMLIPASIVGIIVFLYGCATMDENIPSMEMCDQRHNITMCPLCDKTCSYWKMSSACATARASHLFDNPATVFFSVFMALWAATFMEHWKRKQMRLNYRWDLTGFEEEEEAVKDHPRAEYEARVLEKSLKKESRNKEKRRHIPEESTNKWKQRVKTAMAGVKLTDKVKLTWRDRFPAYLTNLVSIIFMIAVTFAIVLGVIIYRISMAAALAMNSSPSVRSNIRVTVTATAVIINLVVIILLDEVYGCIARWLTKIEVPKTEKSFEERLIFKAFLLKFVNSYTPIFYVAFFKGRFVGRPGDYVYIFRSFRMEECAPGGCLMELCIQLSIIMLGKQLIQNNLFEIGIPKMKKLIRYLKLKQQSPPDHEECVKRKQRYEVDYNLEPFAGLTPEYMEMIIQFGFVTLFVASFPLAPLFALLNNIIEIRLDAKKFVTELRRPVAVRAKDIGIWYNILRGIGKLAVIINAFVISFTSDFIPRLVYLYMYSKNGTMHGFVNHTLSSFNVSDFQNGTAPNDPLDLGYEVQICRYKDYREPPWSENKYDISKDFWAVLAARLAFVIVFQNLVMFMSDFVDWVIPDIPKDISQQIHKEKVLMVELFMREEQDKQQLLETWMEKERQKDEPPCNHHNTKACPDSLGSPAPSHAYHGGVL
Nature of the assay: QPatch-48 assay on HEK293T-derived cell line with doxycycline-induced expression. The settings on record: 30 μM; expression induced with 10 ng/mL doxycycline. The format is cell-based. The method, then:
In addition, another cell line that was HEK293T-derived and induced expression of TMEM16A on addition of 10 ng/mL of doxycycline also performed well on the assay. […] These two other cell lines were run on the machine using the predefined parameters that were optimized with the original cells, including the cell preparation protocol. Therefore, it seems that this assay is easily transferable to any cell line expressing TMEM16A.

The target in assay [2] is T2, abc isoform of TMEM16A (Homo sapiens, UniProt Q5XXA6, DEL476-501).
T2 construct: expressed in transfected cells; host or cells: HEK293T
T2 sequence (Q5XXA6 with tags, fused parts or gaps isoform Q5XXA6-5 DEL539-564): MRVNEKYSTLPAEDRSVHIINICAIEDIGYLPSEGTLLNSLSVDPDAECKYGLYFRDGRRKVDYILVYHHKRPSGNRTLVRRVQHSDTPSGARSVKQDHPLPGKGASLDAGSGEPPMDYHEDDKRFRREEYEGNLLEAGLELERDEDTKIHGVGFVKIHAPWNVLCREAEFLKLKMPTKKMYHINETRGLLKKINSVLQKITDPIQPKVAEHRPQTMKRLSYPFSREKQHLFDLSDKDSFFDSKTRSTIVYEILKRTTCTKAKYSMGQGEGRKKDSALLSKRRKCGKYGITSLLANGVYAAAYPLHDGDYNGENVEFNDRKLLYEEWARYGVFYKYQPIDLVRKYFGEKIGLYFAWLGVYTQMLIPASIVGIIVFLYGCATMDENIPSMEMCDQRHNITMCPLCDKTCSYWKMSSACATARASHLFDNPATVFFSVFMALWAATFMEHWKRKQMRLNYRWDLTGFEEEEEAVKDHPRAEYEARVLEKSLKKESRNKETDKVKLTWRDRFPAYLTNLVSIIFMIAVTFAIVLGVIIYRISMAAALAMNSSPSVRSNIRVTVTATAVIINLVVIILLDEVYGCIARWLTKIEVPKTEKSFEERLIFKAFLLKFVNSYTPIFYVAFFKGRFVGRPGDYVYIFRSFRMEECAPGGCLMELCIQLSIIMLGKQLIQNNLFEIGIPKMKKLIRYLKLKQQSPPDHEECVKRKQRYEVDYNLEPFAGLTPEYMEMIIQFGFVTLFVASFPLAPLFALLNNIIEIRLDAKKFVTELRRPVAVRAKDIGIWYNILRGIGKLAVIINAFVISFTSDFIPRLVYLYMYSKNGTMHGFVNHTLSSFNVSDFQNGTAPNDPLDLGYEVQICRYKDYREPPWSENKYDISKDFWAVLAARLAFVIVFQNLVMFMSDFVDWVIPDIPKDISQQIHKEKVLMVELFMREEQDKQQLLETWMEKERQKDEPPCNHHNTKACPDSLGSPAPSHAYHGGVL
Nature of the assay: QPatch-48 assay on HEK293T cell line stably expressing the abc isoform. The class given is cell-based. To be noted: 30 μM. The method, then:
Using the QPatch-48, we have developed a robust assay for the assessment of TMEM16A small-molecule inhibitors. Many optimization steps were performed to determine the optimal cell culture conditions, internal calcium level, holding potential and voltage protocol, and maximum duration of the assay. It was necessary to control for the culture conditions of the cells and strictly adhere to the cell preparation procedure to obtain high-quality seals. In addition, while the external solution can be used throughout the day, the internal solution should be replaced every 2 h to ensure that the ATP is fresh. Best practices also require solutions to be made weekly and for the osmolarity and pH to be measured accurately. Having met these conditions, the assay results in large currents, averaging a peak current of 6 nA, while maintaining outward rectification that is characteristic of the TMEM16A channel. The benchmark TMEM16A inhibitors that were tested during the validation efforts generated reproducible and expected IC50 values. […] Another HEK293T cell line that stably expressed the abc isoform of TMEM16A also formed high-quality seals and produced large currents.
In general terms: In patch-clamp work, channel activity is measured electrically.

Take `CCc1oc2ccccc2c1C(=O)c1cc(Br)c(O)c(Br)c1` [Benzbromarone]: the block of currents result in assay [1] and in assay [2] was “fully blocked” each time.
